# Measurements as given in the supplement of paper PMC10627819.
# Experiments:
# Assay in all cases: Bliss interaction score (quartile over a dose matrix) (fitness difference); higher = more antagonism (negative = synergy)
# [1] = tested on: S. aureus Newman
# Outline: (§1)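 The Bliss score is observed minus expected fitness under the product model, reported as quartiles over technical, biological and donor/recipient replicates. Fitness is the OD595 at entry into stationary phase divided by the plate's robust no-drug mean and capped at 1. Single-drug fitness was inferred from combination data.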
# [2] = tested on: S. pneumoniae D39V
# Outline: as §1
# [3] = tested on: B. subtilis 168
# Outline: as §1
# [4] = tested on: S. aureus DSM 20231
# Outline: as §1
# 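Note: first quartile when negative (synergy) and third quartile when positive (antagonism).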
smiles,measurement,setting,value
CC(=O)OC[C@H]1O[C@@H]([S-])[C@H](OC(C)=O)[C@@H](OC(C)=O)[C@@H]1OC(C)=O.CCP(CC)CC.[Au+] [Auranofin] + CN(C)[C@@H]1C(O)=C(C(N)=O)C(=O)[C@@]2(O)C(O)=C3C(=O)c4c(O)ccc(Cl)c4[C@@](C)(O)[C@H]3C[C@@H]12 [Clortetracycline],Bliss interaction score,[1],0.0623
same,Bliss interaction score,[2],0.0541
same,Bliss interaction score,[3],0.0659
same,Bliss interaction score,[4],0.0317
CC[C@H]1OC(=O)[C@H](C)[C@@H](O[C@H]2C[C@@](C)(OC)[C@@H](O)[C@H](C)O2)[C@H](C)[C@@H](O[C@@H]2O[C@H](C)C[C@H](N(C)C)[C@H]2O)[C@](C)(OC)C[C@@H](C)C(=O)[C@H](C)[C@@H](O)[C@]1(C)O [Clarithromycin] + N[C@@H]1CONC1=O [CycloserineD],Bliss interaction score,[1],-0.0691
same,Bliss interaction score,[2],0.136
same,Bliss interaction score,[3],0.077
same,Bliss interaction score,[4],-0.127
N[C@@H]1CONC1=O [CycloserineD] + COc1c(N2C[C@@H]3CCCN[C@@H]3C2)c(F)cc2c(=O)c(C(=O)O)cn(C3CC3)c12 [Moxifloxacin],Bliss interaction score,[1],-0.0769
same,Bliss interaction score,[2],0.0969
same,Bliss interaction score,[3],-0.0252
same,Bliss interaction score,[4],-0.0873
CC(=O)OC[C@H]1O[C@@H]([S-])[C@H](OC(C)=O)[C@@H](OC(C)=O)[C@@H]1OC(C)=O.CCP(CC)CC.[Au+] [Auranofin] + COc1ccc(C[C@H](N)C(=O)N[C@H]2[C@@H](O)[C@H](n3cnc4c(N(C)C)ncnc43)O[C@@H]2CO)cc1 [Puromycin],Bliss interaction score,[1],-0.0752
same,Bliss interaction score,[2],-0.103
same,Bliss interaction score,[3],-0.0523
same,Bliss interaction score,[4],-0.0538
CC(=O)O[C@H]1C[C@@]2(C)[C@@H](C[C@@H](O)[C@H]3[C@@]4(C)CC[C@@H](O)[C@@H](C)[C@@H]4CC[C@@]32C)/C1=C(\CCC=C(C)C)C(=O)O [Fusidic acid] + C[n+]1ccc(-c2cc[n+](C)cc2)cc1 [Paraquat],Bliss interaction score,[1],0.0284
same,Bliss interaction score,[2],0.0439
same,Bliss interaction score,[3],0.0317
same,Bliss interaction score,[4],0.0328
CC(=O)O[C@H]1C[C@@]2(C)[C@@H](C[C@@H](O)[C@H]3[C@@]4(C)CC[C@@H](O)[C@@H](C)[C@@H]4CC[C@@]32C)/C1=C(\CCC=C(C)C)C(=O)O [Fusidic acid] + COc1ccc(C[C@H](N)C(=O)N[C@H]2[C@@H](O)[C@H](n3cnc4c(N(C)C)ncnc43)O[C@@H]2CO)cc1 [Puromycin],Bliss interaction score,[1],-0.0454
same,Bliss interaction score,[2],-0.213
same,Bliss interaction score,[3],-0.045
same,Bliss interaction score,[4],0.0336
CC(=O)OC[C@H]1O[C@@H]([S-])[C@H](OC(C)=O)[C@@H](OC(C)=O)[C@@H]1OC(C)=O.CCP(CC)CC.[Au+] [Auranofin] + Cc1ncc([N+](=O)[O-])n1CCO [Metronidazole],Bliss interaction score,[1],-0.137
same,Bliss interaction score,[2],0.133
same,Bliss interaction score,[3],-0.0357
same,Bliss interaction score,[4],-0.046
N[C@@H]1CONC1=O [CycloserineD] + CC(=O)NC[C@H]1CN(c2ccc(N3CCOCC3)c(F)c2)C(=O)O1 [Linezolid],Bliss interaction score,[1],0.06
same,Bliss interaction score,[2],0.146
same,Bliss interaction score,[3],-0.0639
same,Bliss interaction score,[4],-0.125
CC(=O)O[C@H]1C[C@@]2(C)[C@@H](C[C@@H](O)[C@H]3[C@@]4(C)CC[C@@H](O)[C@@H](C)[C@@H]4CC[C@@]32C)/C1=C(\CCC=C(C)C)C(=O)O [Fusidic acid] + Cc1ncc([N+](=O)[O-])n1CCO [Metronidazole],Bliss interaction score,[1],-0.0202
same,Bliss interaction score,[2],0.133
same,Bliss interaction score,[3],0.0703
same,Bliss interaction score,[4],-0.0408
C[C@@H](O)[C@H]1C(=O)N2C(C(=O)O)=C(SCCNC=N)C[C@H]12 [Imipenem] + CC1(C)S[C@@H]2[C@H](NC(=O)Cc3ccccc3)C(=O)N2[C@H]1C(=O)O [PenicillinG],Bliss interaction score,[1],-0.198
same,Bliss interaction score,[2],-0.0999
same,Bliss interaction score,[3],0.0587
same,Bliss interaction score,[4],-0.0614
CCC[C@@H]1C[C@@H](C(=O)N[C@@H]([C@H]2O[C@H](SC)[C@H](O)[C@@H](O)[C@H]2O)[C@H](C)Cl)N(C)C1 [Clindamycin] + N[C@@H]1CONC1=O [CycloserineD],Bliss interaction score,[1],0.0633
same,Bliss interaction score,[2],0.165
same,Bliss interaction score,[3],0.0351
same,Bliss interaction score,[4],-0.101
CC(=O)OC[C@H]1O[C@@H]([S-])[C@H](OC(C)=O)[C@@H](OC(C)=O)[C@@H]1OC(C)=O.CCP(CC)CC.[Au+] [Auranofin] + CC[C@H](C)[C@H](N)C1=N[C@H](C(=O)N[C@@H](CC(C)C)C(=O)N[C@H](CCC(=O)O)C(=O)N[C@H](C(=O)N[C@H]2CCCCNC(=O)[C@H](CC(N)=O)NC(=O)[C@@H](CC(=O)O)NC(=O)[C@H](Cc3cnc[nH]3)NC(=O)[C@@H](Cc3ccccc3)NC(=O)[C@H]([C@@H](C)CC)NC(=O)[C@@H](CCCN)NC2=O)[C@@H](C)CC)CS1 [Bacitracin],Bliss interaction score,[1]; main component drawn,0.133
same,Bliss interaction score,[2]; main component drawn,-0.0398
same,Bliss interaction score,[3]; main component drawn,0.165
same,Bliss interaction score,[4]; main component drawn,0.0174
CC(=O)OC[C@H]1O[C@@H]([S-])[C@H](OC(C)=O)[C@@H](OC(C)=O)[C@@H]1OC(C)=O.CCP(CC)CC.[Au+] [Auranofin] + C[C@@H]1O[C@@H]1P(=O)(O)O [Fosfomycin],Bliss interaction score,[1],0.0901
same,Bliss interaction score,[2],-0.0421
same,Bliss interaction score,[3],0.0301
same,Bliss interaction score,[4],0.0509
CC(=O)OC[C@H]1O[C@@H]([S-])[C@H](OC(C)=O)[C@@H](OC(C)=O)[C@@H]1OC(C)=O.CCP(CC)CC.[Au+] [Auranofin] + CO/N=C(\C(=O)N[C@@H]1C(=O)N2C(C(=O)O)=C(COC(C)=O)CS[C@H]12)c1csc(N)n1 [Cefotaxime],Bliss interaction score,[1],0.0713
same,Bliss interaction score,[2],0.0687
same,Bliss interaction score,[3],-0.0473
same,Bliss interaction score,[4],0.0539
O=C(N[C@H](CO)[C@H](O)c1ccc([N+](=O)[O-])cc1)C(Cl)Cl [Chloramphenicol] + CC[C@H]1OC(=O)[C@H](C)C(=O)[C@H](C)[C@@H](O[C@@H]2O[C@H](C)C[C@H](N(C)C)[C@H]2O)[C@](C)(OC)C[C@@H](C)C(=O)[C@H](C)[C@H]2N(CCCCn3cnc(-c4cccnc4)c3)C(=O)O[C@]12C [Telithromycin],Bliss interaction score,[1],-0.0946
same,Bliss interaction score,[2],-0.0437
same,Bliss interaction score,[3],-0.0575
same,Bliss interaction score,[4],-0.104
